Data on ten compounds can be found in patent US8859544B2, “Indolizine derivatives, process for the preparation thereof and therapeutic use thereof” (Sanofi, priority 2010, dated 2014).

Several values for one entry are separate records, joined by “and”; a condition that tells them apart may be missing. Identical values can stand only once.

Data set [1] relates to inflammatory angiogenesis in mice. In words: Model of inflammatory angiogenesis in mice. The format is in vivo. As to conditions: for % inhibition of the angiogenic parameter (dye content) / % inhibition of the inflammatory parameter (mass of the granuloma): mice, daily oral treatment. The method, then: The model is developed on OF1 female mice (Charles River Laboratories) weighing approximately 25 g, and by groups of 12. The animals are anaesthetized with sodium pentobarbital (60 mg/kg; Sanofi Nutrition Santé animale)) intraperitoneally. An air pocket is created on the back of the mouse by subcutaneous injection of 3 ml of air. […] Seven days later, the mice are again anaesthetized and placed on a hot plate at 40° C. One ml of carmine red (Aldrich Chemicals, 5% in 10% of gelatin) is injected into the tail vein. The animals are then placed at 4° C. for 2-3 hours. The skins are then taken and dried for 24 h in an oven at 56° C. The dry tissues are weighed and placed in 1.8 ml of digestion solution (2 mM dithiothreitol, 20 mM Na2HPO4, 1 mM EDTA, 12 U/ml papain) for 24 h. The dye is then dissolved in 0.2 ml of 5M NaOH. The skins are centrifuged at 2000 rpm for 10 min at ambient temperature. The supernatants are filtered through 0.2 μm cellulose acetate membranes. The filtrates are read in a spectrophotometer at 492 nm against a carmine red calibration range. Two parameters are studied: the dry weight of the granuloma and the amount of dye after digestion of the tissues. The results are expressed as mean values (±sem). The differences between the groups are tested with an ANOVA followed by a Dunnett's test, of which the reference group is the “solvent control” group.
The FGF-R antagonists are evaluated between 1 and 50 mg/kg using methylcellulose/tween (0.6% v/v) as vehicle or any other vehicle which allows the active ingredient to be solubilized. The molecules are administered daily, orally (one or two times a day) by gavage.

The test system of data set [2] is HUVEC cells stimulated with FGF-2. The data set can be described thus: FGF-2-induced in vitro angiogenesis of HUVEC cells. To be noted: as a percentage of the control. The format is cell-based, human. The method, then: To do this, matrices composed of matrigel (growth factor reduced matrigel, Becton Dickinson 356230) and collagen (rat tail collagen type I, Becton Dickinson 354236) are deposited, at a rate of 160 μl, into each chamberslide well (Biocoat Cellware collagen, Type I, 8-well culturesides: Becton Dickinson 354630), or 60 μl per well of 96-well plates (Biocoat collagen I cellware, Becton Dickinson 354407). The matrix is prepared by mixing ⅓ of matrigel, 1 mg/ml final concentration of collagen, NaOH (0.1N) (0.026× the volume of collagen in μl) and 1×PBS, and the volume is then adjusted with water. The gels are kept at 37° C. for 1 hour so as to allow them to polymerize. Next, the human vein endothelial cells (HUVECs ref: C-12200-Promocell) were seeded at 15×10^3 or 6×10^3 cells/well in 400 or 120 μl (for the 8-well or 96-well plates respectively) of EBM medium (Clonetics C3121)+2% FBS+10 μg/ml hEGF. They were stimulated with 1 or 3 ng/ml of FGF-2 (R&D systems, 133-FB-025; Invitrogen, PHG0026) for 24 h at 37° C. in the presence of 5% CO2. After 24 hours, the length of the network of microtubules formed was measured using a computer-assisted image analysis system (Imagenia Biocom, Courtaboeuf, France) and the total length of the pseudotubules in each well was determined. The average total length of the microcapillary network was calculated in μm for each condition corresponding to the average of 6 replicates.
Stimulation with FGF2 makes it possible to induce the formation of new tubules. An FGF-R antagonist is considered to be active in this test as long as it is capable of partially inhibiting this angiogenesis at a dose less than or equal to 300 nM.

Data set [3] has the same test system. In words: FGF-2-induced in vitro proliferation of HUVEC cells. The format is cell-based, human. To be noted: inhibition of proliferation as percentage of the control. As to the method:
To do this, HUVEC human vein endothelial cells (promocell, C-12200) are seeded at a rate of 5000 cells per well of a 96-well plate (Biocoat collagen I cellware, Becton Dickinson 354650) in 100 μl of RPMI 1640 deprivation medium (Invitrogen, 31872-025) supplemented with 0.5% or 1% FCS, 2 mM glutamine, 1× sodium pyruvate (Invitrogen, 11360-039) and 1×NEAA (Invitrogen, 11140-035), overnight at 37° C. in the presence of 5% CO2. The following morning, the medium is suctioned-off and replaced with 50 μl of deprivation medium containing the antagonists at a 2× concentration, to which are added 50 μl of FGF-2 (R&D systems, 133-FB-025; Invitrogen, PHG0026) at 0.2 ng/ml (i.e. 2×). After 48 or 72 h, 100 μl of Cell Titer-GLOW Luminescent Cell Viability Assay (Promega, G7571) are added for 10 min in order to measure, by means of a luminometer, the amount of ATP present in the cells and which is in relation to the number of cells per well corresponding to the cell proliferation.
The antagonists of the present invention are considered to be active as long as they are capable of inhibiting FGF-2-induced proliferation of HUVEC cells at a dose less than or equal to 300 nM.

Turning to `COc1c(C)c(C(=O)c2ccc3nc(C)[nH]c(=O)c3c2)n2ccccc12` [Compound No. 15, 6-[(1-Methoxy-2-methylindolizin-3-yl)carbonyl]-2-methylquinazolin-4(3H)-one], the melting point was 290 °C and 287 °C. In data set [1] (30 mg/kg), the “% inhibition of the angiogenic parameter (dye content)” value (“% inhibition … (dye content)” below) was found to be 21% and the “% inhibition of the inflammatory parameter (mass of the granuloma)” value (“% inhibition … (mass of the granuloma)” below) was determined as 21%.
As to `CCOC(=O)COn1c(=O)[nH]c2ccc(C(=O)c3c(C)c(OC)c4ccccn34)cc2c1=O` [Compound No. 34, Ethyl({6-[(1-methoxy-2-methylindolizin-3-yl)carbonyl]-2,4-dioxo-1,4-dihydroquinazolin-3(2H)-yl}oxy)acetate], the melting point was found to be 230 °C.
Consider `COc1c(C)c(C(=O)c2ccc3[nH]c(=O)n(CC(=O)N(C)C)c(=O)c3c2)n2ccccc12` [Compound No. 35, 2-{6-[(1-Methoxy-2-methylindolizin-3-yl)carbonyl]-2,4-dioxo-1,4-dihydroquinazolin-3(2H)-yl}-N,N′-dimethylacetamide], for which, in data set [1] (30 mg/kg), the “% inhibition … (dye content)” value is listed as 36% and the “% inhibition … (mass of the granuloma)” value was determined as 36%. Further, in data set [1] (10 or 30 mg/kg, after one week of daily treatment), the “dye content corresponding to the angiogenesis” value is listed as “significantly reduce”.
On to `COc1c(C)c(C(=O)c2ccc3[nH]c(=O)n(Cc4nc(C)no4)c(=O)c3c2)n2ccccc12` [Compound No. 36, 6-[(1-Methoxy-2-methylindolizin-3-yl)carbonyl]-3-[(3-methyl-1,2,4-oxadiazol-5-yl)methyl]quinazoline-2,4(1H,3H)-dione], for which the melting point came to 176 °C.
On to `CCCn1c(=O)[nH]c2ccc(C(=O)c3c(C)c(OCCOC)c4ccccn34)cc2c1=O` [Compound No. 48, 6-{[1(2-Methoxyethoxy)-2-methylindolizin-3-yl]carbonyl}-3-propylquinazoline-2,4(1H,3H)-dione], for which the melting point amounted to 215 °C.
On the same count and under the same terms, the same measure for `COc1c(C)c(C(=O)c2ccc3[nH]c(=O)n(N)c(=O)c3c2)n2ccccc12` [Compound No. 51, 3-Amino-6-[(1-methoxy-2-methylindolizin-3yl)carbonyl]quinazoline-2,4(1H,3H)-dione]: 220 °C.
`COc1c(C)c(C(=O)c2ccc3c(c2)c(=O)c(C(=O)[O-])cn3C)n2ccccc12.[Na+]` [Compound No. 62, Sodium salt of 6-[(1-methoxy-2-methylindolizin-3-yl)carbonyl]-1-methyl-4-oxo-1,4-dihydroquinoline-3-carboxylic acid]: in data set [1] (10 mg/kg), the “% inhibition … (dye content)” value was 43% and the “% inhibition … (mass of the granuloma)” value was 38%.
Compound `COc1c(C)c(C(=O)c2ccc3c(c2)c(=O)n(CC(=O)N(C)C)c(=O)n3C)n2ccccc12` [Compound No. 68, 2-{6-[(1-Methoxy-2-methylindolizin-3-yl)carbonyl]-1-methyl-2,4-dioxo-1,4-dihydroquinazolin-3(2H)-yl}-N,N-dimethylacetamide] yielded a melting point of 276 °C.
`CNC(=O)c1c[nH]c2ccc(C(=O)c3c(C)c(OC)c4ccccn34)cc2c1=O` [Compound No. 96, 6-[(1-Methoxy-2-methylindolizin-3-yl)carbonyl]-N-methyl-4-oxo-1,4-dihydroquinoline-3-carboxamide] had a melting point of 324 °C. In data set [2] (Homo sapiens, 3 nM), the inhibition at 0.003 µM stood at 123%. For the same compound, the inhibition at 0.03 µM in data set [2] (Homo sapiens, 30 nM) is 129%. For the same compound, in data set [3] (Homo sapiens, 30 nM, read-out: Percentage inhibition of angiogenesis (%)), the inhibition at 0.03 µM worked out at 123%. For the same compound, the inhibition at 0.3 µM in data set [3] (Homo sapiens, 300 nM, read-out: Percentage inhibition of angiogenesis (%)) came out at 129%.
Turning to `CNC(=O)c1cn(C)c2ccc(C(=O)c3c(C)cc4ccccn34)cc2c1=O` [Compound No. 105, N-1-Dimethyl-6-[(2-methylindolizin-3-yl)carbonyl]-4-oxo-1,4-dihydroquinoline-3-carboxamide], the “Percentage inhibition of angiogenesis (%)” value in data set [2] (3 nM) came out at 25%; in data set [2] (30 nM), 105%; in data set [3] (30 nM) it was 14%; in data set [3] (300 nM), 123%.
